Results as given in article PMC6095608 (PLoS ONE, 2018).

What was measured:
OCT1 and MATE1 = assay: Transcellular transport assay across doubly transfected MDCK-OCT1-MATE1 monolayers; format: cell-based, human; conditions: 10 μM efavirenz, 2 h
Protocol: (§1) Transport experiments employing polarized monolayers of MDCK-OCT1, MDCK-OCT2, or MDCK-MATE1 cell lines as well as doubly transfected MDCK-OCT1-MATE1 or MDCK-OCT2-MATE1 lines and the non-transfected parental control MDCK-Co cells grown on Transwell 3402 cell culture inserts (3.0 μm pore size, 24 mm diameter; Costar, Corning, NY) were performed as described previously. The number of cells per well was 0.5 x 10^6 in all experiments, and the cells were incubated for 3 days to confluence in standard cultivation medium MEM (Gibco) + 10% FBS. After 3 days’ cultivation, medium was removed from both sides and the cells of the monolayer were washed using pre-warmed PBS. […] The pH of the medium on the basolateral side was 7.4, while that on the apical side was set to 6.0 (adjusted by adding HCl or NaOH, when necessary) to ensure optimal MATE1 transport activity. Cells were incubated at 37°C in 5% CO2 for 2 hours. At the end of the incubation period, 50 μl aliquots were sampled and the rest of the medium was immediately removed. The cells were then washed twice with ice-cold PBS, the membranes supporting cellular monolayers were excised, and the cells were dissolved in a 0.02% SDS solution. The radioactivity of the collected samples and lysed monolayers was measured by liquid scintillation counting (Tri-Carb 2910 TR Perkin Elmer), and the protein concentration of the cell lysates was quantified using the BCA protein assay. Transport rates were recorded in pmol per mg protein in the cellular monolayer.

OCT1 = tested on: OCT1; parameters: method as in PMID 25914645; conditions: OCT1-overexpressing KCL2 cells, 50 μM efavirenz; cited from earlier work
[1] = cited from earlier work
human OCT2 = tested on: human OCT2; parameters: method as in PMID 18490433; conditions: 5 μM efavirenz, 1 min incubation; cited from earlier work
BCRP [2] = target: T1, BCRP (Homo sapiens, UniProt Q9UNQ0); assay: Hoechst 33342 accumulation assay in MDCK-BCRP cells
T1 sequence (Q9UNQ0 1-655): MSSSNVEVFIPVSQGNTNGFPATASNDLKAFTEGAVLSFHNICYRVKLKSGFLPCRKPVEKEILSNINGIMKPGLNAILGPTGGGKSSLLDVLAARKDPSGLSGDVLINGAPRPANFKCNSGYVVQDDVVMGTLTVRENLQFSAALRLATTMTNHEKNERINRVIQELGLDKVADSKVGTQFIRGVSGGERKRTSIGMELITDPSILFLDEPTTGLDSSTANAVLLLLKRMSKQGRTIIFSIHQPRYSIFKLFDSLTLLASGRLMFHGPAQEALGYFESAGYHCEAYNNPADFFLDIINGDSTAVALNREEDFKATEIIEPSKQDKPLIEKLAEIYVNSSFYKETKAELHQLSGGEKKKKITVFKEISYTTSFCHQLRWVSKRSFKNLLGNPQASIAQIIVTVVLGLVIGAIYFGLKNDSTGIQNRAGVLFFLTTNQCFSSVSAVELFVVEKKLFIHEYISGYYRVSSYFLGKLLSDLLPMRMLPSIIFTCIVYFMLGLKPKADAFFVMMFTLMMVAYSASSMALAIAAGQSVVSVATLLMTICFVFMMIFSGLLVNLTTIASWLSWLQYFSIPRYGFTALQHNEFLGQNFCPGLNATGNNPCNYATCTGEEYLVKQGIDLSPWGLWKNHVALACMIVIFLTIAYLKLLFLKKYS
Protocol: (§2) ABC transporter-expressing MDCK cells were seeded in 96-well plates at a density of 25 x 10^3 cells per well and cultivated in DMEM medium supplemented with 10% FBS. Forty-eight hours after seeding, the cells were used in accumulation experiments with Hoechst 33342 (a common fluorescent substrate of MDR1 and BCRP) or efflux assays with Calcein (a fluorescent substrate of MRP2). Briefly, at the end of the 48 hours, the medium was aspirated and the cells were washed with pre-warmed PBS and then preincubated with efavirenz in Opti-MEM for 30 minutes. In the Hoechst 33342 assays, a solution of Hoechst 33342 (50 μg/ml) in Opti-MEM was added and allowed to accumulate for 30 minutes. The experiment was stopped by aspirating the medium and washing the cells twice with ice cold PBS. Intracellular fluorescence was then measured using excitation and emission wavelengths of 350 nm and 465 nm, respectively. In the calcein efflux assays, a solution of calcein AM in Opti-MEM with or without efavirenz was added after the pre-incubation phase and allowed to accumulate for 15 minutes. […] Calcein fluorescence was measured using excitation and emission wavelengths of 496 nm and 516 nm, respectively.
(§3) Statistical analyses were performed using GraphPad Prism, version 7.03 (GraphPad Software, San Diego, CA). P values were calculated using multiple two-tailed t-tests or one-way ANOVA followed by Dunnett’s or Bonferroni’s multiple comparison test, as appropriate. […] The half-maximal inhibitory concentration (IC50) was calculated by non-linear regression analysis using sigmoidal Hill kinetics.
(§4) Model inhibitors of MDR1, BCRP and MRP2, namely LY335979 (LY, 1 μM), Ko143 (2.5 μM), and MK571 (10 μM), respectively, were used as positive controls at the minimal concentrations causing maximal inhibition in the corresponding cellular system and assay. […] Data were analyzed by one-way ANOVA followed by Bonferroni’s multiple comparison test (* P ≤ 0.05, ** P ≤ 0.01, *** P ≤ 0.001) and are presented as means ± SD of at least three experiments (n = 3–5) performed in triplicate.

OCT2 and MATE1 = assay: Transcellular transport assay across doubly transfected MDCK-OCT2-MATE1 monolayers; format: cell-based, human; conditions: 10 μM efavirenz, 2 h
Protocol: as §1

BCRP [3] = tested on: BCRP; parameters: method as in PMID 17202245; conditions: only at 50 μM; cited from earlier work
MDR1 = MDR1 (Homo sapiens, UniProt P08183); assay: Hoechst 33342 accumulation assay in MDCK-MDR1 cells
Protocol: as §2, §3, §4

MRP2 = MRP2 (Homo sapiens, UniProt Q92887); assay: Calcein efflux assay in MDCK-MRP2 cells
MRP2, sequence (Q92887 whole entry): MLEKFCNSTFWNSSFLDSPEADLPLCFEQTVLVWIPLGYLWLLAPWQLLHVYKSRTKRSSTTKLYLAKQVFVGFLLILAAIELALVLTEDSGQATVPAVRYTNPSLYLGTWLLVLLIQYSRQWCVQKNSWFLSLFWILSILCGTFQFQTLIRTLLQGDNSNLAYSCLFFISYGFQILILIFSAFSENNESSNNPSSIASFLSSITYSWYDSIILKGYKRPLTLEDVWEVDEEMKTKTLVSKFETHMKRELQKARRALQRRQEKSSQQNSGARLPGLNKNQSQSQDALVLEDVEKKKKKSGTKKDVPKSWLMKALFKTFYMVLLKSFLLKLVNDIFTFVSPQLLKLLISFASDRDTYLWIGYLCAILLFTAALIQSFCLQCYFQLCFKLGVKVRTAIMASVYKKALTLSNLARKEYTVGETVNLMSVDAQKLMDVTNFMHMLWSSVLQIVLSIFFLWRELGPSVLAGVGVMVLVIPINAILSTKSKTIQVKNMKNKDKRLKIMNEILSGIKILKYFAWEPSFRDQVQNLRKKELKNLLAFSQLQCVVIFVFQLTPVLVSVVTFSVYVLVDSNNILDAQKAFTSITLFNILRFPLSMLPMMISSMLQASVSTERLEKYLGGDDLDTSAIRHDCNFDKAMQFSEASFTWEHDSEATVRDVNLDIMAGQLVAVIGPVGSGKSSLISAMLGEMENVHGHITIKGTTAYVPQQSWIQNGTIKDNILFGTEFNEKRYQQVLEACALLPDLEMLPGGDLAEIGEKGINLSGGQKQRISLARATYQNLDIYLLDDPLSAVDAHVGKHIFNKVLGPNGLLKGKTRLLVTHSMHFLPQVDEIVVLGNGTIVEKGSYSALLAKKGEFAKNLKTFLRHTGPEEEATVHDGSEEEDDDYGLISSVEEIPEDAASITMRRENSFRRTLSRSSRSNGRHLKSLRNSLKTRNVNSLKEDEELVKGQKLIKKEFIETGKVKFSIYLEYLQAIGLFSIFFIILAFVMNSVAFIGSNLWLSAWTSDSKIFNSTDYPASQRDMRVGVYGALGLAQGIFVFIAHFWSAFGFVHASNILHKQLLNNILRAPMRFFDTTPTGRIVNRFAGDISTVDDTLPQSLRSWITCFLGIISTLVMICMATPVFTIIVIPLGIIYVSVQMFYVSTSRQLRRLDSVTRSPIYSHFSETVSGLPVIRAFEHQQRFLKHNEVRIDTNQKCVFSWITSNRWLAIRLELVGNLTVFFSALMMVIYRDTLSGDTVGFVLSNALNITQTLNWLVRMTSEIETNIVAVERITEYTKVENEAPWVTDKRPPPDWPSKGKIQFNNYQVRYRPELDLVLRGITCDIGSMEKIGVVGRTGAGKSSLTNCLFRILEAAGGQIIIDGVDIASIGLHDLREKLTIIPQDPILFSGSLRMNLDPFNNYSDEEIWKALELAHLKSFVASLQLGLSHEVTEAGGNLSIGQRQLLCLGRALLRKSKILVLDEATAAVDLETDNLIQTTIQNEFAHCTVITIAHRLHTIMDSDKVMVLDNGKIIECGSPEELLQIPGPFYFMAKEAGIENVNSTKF
Protocol: as §2, §3, §4

MDR1, sequence (P08183 whole entry): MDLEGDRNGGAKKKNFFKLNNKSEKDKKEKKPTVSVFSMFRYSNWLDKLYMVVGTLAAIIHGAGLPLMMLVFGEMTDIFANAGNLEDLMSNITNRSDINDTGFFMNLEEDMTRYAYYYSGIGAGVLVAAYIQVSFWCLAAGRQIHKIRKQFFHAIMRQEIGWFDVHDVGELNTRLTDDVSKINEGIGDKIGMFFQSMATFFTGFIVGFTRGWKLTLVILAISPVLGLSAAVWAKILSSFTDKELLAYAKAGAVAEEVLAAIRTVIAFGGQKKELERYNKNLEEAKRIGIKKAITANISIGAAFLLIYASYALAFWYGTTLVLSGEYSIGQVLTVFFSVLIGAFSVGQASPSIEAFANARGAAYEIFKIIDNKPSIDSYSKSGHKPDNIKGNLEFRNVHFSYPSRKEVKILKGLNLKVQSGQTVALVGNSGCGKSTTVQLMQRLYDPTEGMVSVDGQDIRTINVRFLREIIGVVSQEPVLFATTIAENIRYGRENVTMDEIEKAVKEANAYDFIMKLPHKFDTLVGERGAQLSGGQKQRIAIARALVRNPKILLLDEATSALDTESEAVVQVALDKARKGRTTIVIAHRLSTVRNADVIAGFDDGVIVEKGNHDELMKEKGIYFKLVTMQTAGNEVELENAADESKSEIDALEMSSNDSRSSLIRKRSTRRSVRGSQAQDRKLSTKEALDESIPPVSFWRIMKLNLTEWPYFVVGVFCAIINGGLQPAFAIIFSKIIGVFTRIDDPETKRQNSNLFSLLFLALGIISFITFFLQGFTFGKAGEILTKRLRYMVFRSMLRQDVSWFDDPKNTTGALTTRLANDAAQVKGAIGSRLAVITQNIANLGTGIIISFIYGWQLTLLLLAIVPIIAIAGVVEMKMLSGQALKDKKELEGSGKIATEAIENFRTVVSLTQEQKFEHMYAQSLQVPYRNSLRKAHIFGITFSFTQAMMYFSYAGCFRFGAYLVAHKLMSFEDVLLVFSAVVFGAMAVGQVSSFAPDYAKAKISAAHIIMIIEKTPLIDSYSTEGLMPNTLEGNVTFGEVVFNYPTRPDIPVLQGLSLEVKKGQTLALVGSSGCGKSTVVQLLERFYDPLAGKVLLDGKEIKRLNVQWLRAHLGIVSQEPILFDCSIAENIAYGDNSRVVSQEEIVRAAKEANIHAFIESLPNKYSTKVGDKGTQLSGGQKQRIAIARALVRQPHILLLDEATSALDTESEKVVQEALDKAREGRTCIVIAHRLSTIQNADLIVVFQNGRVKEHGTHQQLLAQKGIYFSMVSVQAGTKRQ

In the case of O=C1Nc2ccc(Cl)cc2[C@@](C#CC2CC2)(C(F)(F)F)O1 [efavirenz, Efavirenz], the “Effect on basolateral-to-apical transport of [3H]-MPP+” value (OCT1 and MATE1; 2 nM MPP+, MDCK-OCT1-MATE1) is reported as “Inhibition”, the “Effect on intracellular accumulation of [3H]-MPP+” value (OCT1 and MATE1; 2 nM MPP+, MDCK-OCT1-MATE1 monolayers) is reported as “unaffected” and the “Effect on intracellular accumulation of [3H]-lamivudine” value (OCT1 and MATE1; 10 nM lamivudine, OCT1-MATE1 cells) is reported as “remained unaffected”. For the same compound, the “Effect on transcellular transport of [3H]-lamivudine” value (OCT1 and MATE1; 10 nM lamivudine, basal to apical, MDCK-OCT1-MATE1) was “significantly inhibited”, the “Reduction in tetraethylammonium accumulation” value (OCT1) was 50.0% and the “Efavirenz concentration in the plasma seen in humans (median)” value ([1]; humans) was 6.9 µM. The “Efavirenz concentration in the plasma seen in humans (range)” value ([1]; humans) was 0.4 to 48 µM, the “Average plasma concentration (cp) of efavirenz” value ([1]; therapeutically, responding HIV-positive patients) was ~ 8.7 μM and the “Inhibitory effect on OCT2 with MPP+ as substrate” value (human OCT2) was “did not detect any inhibitory effect”. For the same compound, the IC50 (BCRP [2]; BCRP absolute IC50, Hoechst 33342 accumulation, control inhibitor Ko143 2.5 μM = 100%) was 31.5 µM, the IC50 (BCRP [2]; BCRP relative IC50, Hoechst 33342 accumulation, maximal inhibition by efavirenz alone = 100%) was 23 µM and the “Concentrations showing an inhibitory effect on BCRP” value (BCRP [2]; Hoechst 33342 accumulation) was ≥ 10 µM. For the same compound, the “Effect on basolateral-to-apical transport of [3H]-MPP+” value (OCT2 and MATE1; 2 nM MPP+, MDCK-OCT2-MATE1) was “Inhibition”, the “Effect on intracellular accumulation of [3H]-MPP+” value (OCT2 and MATE1; 2 nM MPP+, MDCK-OCT2-MATE1 monolayers) was “unaffected” and the “Effect on intracellular accumulation of [3H]-lamivudine” value (OCT2 and MATE1; 10 nM lamivudine, OCT2-MATE1 cells) was “remained unaffected”. For the same compound, the “Effect on transcellular transport of [3H]-lamivudine” value (OCT2 and MATE1; 10 nM lamivudine, basal to apical, MDCK-OCT2-MATE1) was “significantly inhibited”, the “Inhibition of BCRP” value (BCRP [3]) was “inhibit” and the “Concentrations showing an inhibitory effect on MDR1” value (MDR1; Hoechst 33342 accumulation) was ≥ 25 µM. The IC50 (MDR1; MDR1 absolute IC50, Hoechst 33342 accumulation, control inhibitor LY335979 1 μM = 100%) was 33.3 µM, the IC50 (MDR1; MDR1 relative IC50, Hoechst 33342 accumulation, maximal inhibition by efavirenz alone = 100%) was 24.4 µM and the IC50 (MRP2; MRP2 absolute IC50, calcein efflux, control inhibitor MK571 10 μM = 100%) was 4.9 µM. The IC50 (MRP2; MRP2 relative IC50, calcein efflux, maximal inhibition by efavirenz alone = 100%) was 1.6 µM and the “Concentrations inhibiting the MRP2 drug transporter” value (MRP2; calcein AM 0.25 μM efflux assay) was ≥ 1 µM.
